Experimental data as given in patent US9072774B2, “Porphyrin nanovesicles” (UNIVERSITY HEALTH NETWORK, priority 2009, dated 2015).

Experiment: Differential scanning calorimetry
Format: physicochemical
Details: 5 mg/ml in PBS, scan rate 1° C./min
Protocol: Samples were placed in a vacuum for 30 min prior to measurement. A scan rate of 1° C./min was used for all samples. PBS was used as the reference and one scan cycle of PBS was used as the baseline. For each lipid, three cooling and heating scans were performed and the results averaged to determine the phase transition temperature of the lipids.

With CCCCCCCCCCCCCC(=O)OC[C@H](COP(=O)([O-])OCC[N+](C)(C)C)OC(=O)CCCCCCCCCCCCC [DMPC] as the compound, how does the transition temperature read?
The transition temperature was 24 °C.
